The values that follow come from PubChem BioAssay AID330 (DTP/NCI, 2004).

The structures appear in SMILES notation. Several values for one entry are separate records, joined by “and”; a condition that tells them apart may be missing. Identical values can stand only once. Toxic doses and inconclusive results are not listed.

This assay relates to P388 leukemia ip, CD2F1 mice, survival T/C. Briefly: NCI In Vivo Anticancer Drug Screen. Data for tumor model P388 Leukemia (intraperitoneal) in CD2F1 (CDF1) mice. The following applies: endpoint: median survival time, higher = longer survival. Summed up:
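Mice carrying the transplanted tumor received test compound or vehicle. Survival was recorded in each group, and the value is the treated-group measurement divided by that of the vehicle-treated control group.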

The mark [1] stands for this setting: dose: 100.0 mg/kg/injection, schedule: Q04DX002 (ip), vehicle: saline with Tween-80.
The mark [2] stands for this setting: dose: 25.0 mg/kg/injection, schedule: Q01DX005 (ip), vehicle: Klucel (hydroxypropylcellulose) (HPC).
Setting [3] is: dose: 50.0 mg/kg/injection, schedule: Q01DX005 (ip), vehicle: Klucel (hydroxypropylcellulose) (HPC).
[4] abbreviates: dose: 100.0 mg/kg/injection, schedule: Q01DX005 (ip), vehicle: Klucel (hydroxypropylcellulose) (HPC).
[5] abbreviates: dose: 50.0 mg/kg/injection, schedule: Q01DX005 (ip), vehicle: saline.
The mark [6] stands for this setting: dose: 100.0 mg/kg/injection, schedule: Q01DX005 (ip), vehicle: saline.
Setting [7] is: dose: 50.0 mg/kg/injection, schedule: Q04DX003 (ip), vehicle: saline with Tween-80.
The mark [8] stands for this setting: dose: 50.0 mg/kg/injection, schedule: Q01DX009 (ip), vehicle: Klucel (hydroxypropylcellulose) (HPC).
Setting [9] is: dose: 100.0 mg/kg/injection, schedule: Q01DX009 (ip), vehicle: Klucel (hydroxypropylcellulose) (HPC).
[10] abbreviates: dose: 200.0 mg/kg/injection, schedule: Q01DX009 (ip), vehicle: Klucel (hydroxypropylcellulose) (HPC).
[11] abbreviates: dose: 50.0 mg/kg/injection, schedule: Q01DX005 (ip), vehicle: saline with Tween-80.
The mark [12] stands for this setting: dose: 100.0 mg/kg/injection, schedule: Q01DX005 (ip), vehicle: saline with Tween-80.
Setting [13] is: dose: 200.0 mg/kg/injection, schedule: Q01DX005 (ip), vehicle: saline with Tween-80.

Take `CSCC1(C)OC(c2ccccc2)=Nc2ccccc21` (stereo not drawn): the T/C was 97 % of control under setting [1]; 98 % of control (dose: 200.0 mg/kg/injection, schedule: Q04DX002 (ip), vehicle: saline with Tween-80); 106 % of control (dose: 400.0 mg/kg/injection, schedule: Q04DX002 (ip), vehicle: saline with Tween-80).

On to `N=C(N)c1ccc(N=Nc2cc(N=Nc3ccccc3)ccc2O)cc1`, for which the T/C is 109 % of control under setting [2]; 113 % of control under setting [3]; 115 % of control under setting [4]; 115 % of control (dose: 200.0 mg/kg/injection, schedule: Q01DX005 (ip), vehicle: Klucel (hydroxypropylcellulose) (HPC)).

As to `COc1ccn(C2CCCO2)c(=O)n1` (stereo not drawn), the T/C by setting is: under setting [5], 95 % of control; under setting [6], 100 % of control; (dose: 200.0 mg/kg/injection, schedule: Q01DX005 (ip), vehicle: saline) 88 % of control.

As for `COC(=O)CCN(CCC(=O)OC)Cc1ccccc1`, the T/C reads like this: under setting [7], 101 % of control; (dose: 100.0 mg/kg/injection, schedule: Q04DX003 (ip), vehicle: saline with Tween-80) 100 % of control; (dose: 200.0 mg/kg/injection, schedule: Q04DX003 (ip), vehicle: saline with Tween-80) 100 % of control.

With `COc1cccc(NC(=S)NCc2cccnc2)c1`, the T/C runs as follows: under setting [8], 101 % of control; under setting [9], 91 % of control; under setting [10], 111 % of control.

`CC1(C)COC(CCCCCO)=N1`: the T/C runs as follows: (dose: 50.0 mg/kg/injection, schedule: Q01DX009 (ip), vehicle: saline with Tween-80) 103 % of control; (dose: 100.0 mg/kg/injection, schedule: Q01DX009 (ip), vehicle: saline with Tween-80) 97 % of control; (dose: 200.0 mg/kg/injection, schedule: Q01DX009 (ip), vehicle: saline with Tween-80) 92 % of control.

For `Cc1ccc(S(=O)(=O)/N=S(\C)CCCl)cc1` (stereo not drawn), the T/C (dose: 100.0 mg/kg/injection, schedule: Q04DX003 (ip), vehicle: suspension in saline) was 100 % of control; the T/C (dose: 200.0 mg/kg/injection, schedule: Q04DX003 (ip), vehicle: suspension in saline) was 100 % of control; the T/C (dose: 400.0 mg/kg/injection, schedule: Q04DX003 (ip), vehicle: suspension in saline) was 106 % of control.

As to `C=CCc1ccc(OC)c(O)c1C(=O)OCC`, the T/C reads like this: (dose: 50.0 mg/kg/injection, schedule: Q01DX009 (ip), vehicle: saline) 103 % of control; (dose: 100.0 mg/kg/injection, schedule: Q01DX009 (ip), vehicle: saline) 103 % of control; (dose: 200.0 mg/kg/injection, schedule: Q01DX009 (ip), vehicle: saline) 95 % of control.

`COc1ccc(/C=N/NC(=O)C(=O)Nc2ccc(Cl)c([N+](=O)[O-])c2)cc1OC`: the T/C is 93 % of control under setting [11], 92 % of control under setting [12] and 103 % of control under setting [13].

For `CC(C)N(C(=O)c1ncccc1C(=O)c1ccccn1)C(C)C`, the T/C is, setting by setting: under setting [11], 105 % of control; under setting [12], 94 % of control; under setting [13], 94 % of control.

In the case of `COc1cccc2c1C(=O)c1c(OC)c3c(c(OC)c1C2=O)C[C@@](O)(C(C)=O)C[C@@H]3OC1CC(N)C(O)C(C)O1` (stereo partly drawn), the T/C is, setting by setting: (dose: 0.5 mg/kg/injection, schedule: Q01DX009 (ip), vehicle: water) 103 % of control; (dose: 1.0 mg/kg/injection, schedule: Q01DX009 (ip), vehicle: water) 110 % of control; (dose: 2.0 mg/kg/injection, schedule: Q01DX009 (ip), vehicle: water) 102 % of control; (dose: 4.0 mg/kg/injection, schedule: Q01DX009 (ip), vehicle: water) 106 % of control; (dose: 8.0 mg/kg/injection, schedule: Q01DX009 (ip), vehicle: water) 114 % of control and 119 % of control; (dose: 16.0 mg/kg/injection, schedule: Q01DX009 (ip), vehicle: water) 111 % of control and 123 % of control. For the same molecule, where the note is “dose: 128.0 mg/kg/injection, schedule: Q01DX009 (ip), vehicle: water”, the T/C was 169 % of control.

For the molecule `CCOC(=O)/C=C/c1ccc(C(=O)OCC)[nH]1`, the T/C (dose: 25.0 mg/kg/injection, schedule: Q01DX009 (ip), vehicle: Klucel (hydroxypropylcellulose) (HPC)) was 101 % of control; the T/C under setting [8] is 100 % of control; the T/C under setting [9] is 107 % of control; the T/C under setting [10] was 97 % of control.

Turning to `C=C1C(=O)O[C@@H]2C[C@@]3(C)CC(=O)C=C(C)[C@@H]3C[C@H]12`, the T/C (dose: 6.25 mg/kg/injection, schedule: Q04DX003 (ip), vehicle: saline with Tween-80) was 108 % of control; the T/C (dose: 12.5 mg/kg/injection, schedule: Q04DX003 (ip), vehicle: saline with Tween-80) is 104 % of control; the T/C (dose: 25.0 mg/kg/injection, schedule: Q04DX003 (ip), vehicle: saline with Tween-80) is 108 % of control; the T/C under setting [7] was 100 % of control.

Consider `Clc1ccc(CN2COc3c(cc(Cl)c4cccnc34)C2)c(Cl)c1`, for which the T/C runs as follows: (dose: 100.0 mg/kg/injection, schedule: Q04DX003 (ip), vehicle: Klucel (hydroxypropylcellulose) (HPC)) 102 % of control; (dose: 200.0 mg/kg/injection, schedule: Q04DX003 (ip), vehicle: Klucel (hydroxypropylcellulose) (HPC)) 87 % of control; (dose: 400.0 mg/kg/injection, schedule: Q04DX003 (ip), vehicle: Klucel (hydroxypropylcellulose) (HPC)) 87 % of control.

Turning to `Cn1c(=O)c2c(=S)sc(=S)[nH]c2n(C)c1=O`, the T/C is 106 % of control (dose: 25.0 mg/kg/injection, schedule: Q04DX002 (ip), vehicle: saline with Tween-80); 106 % of control (dose: 50.0 mg/kg/injection, schedule: Q04DX002 (ip), vehicle: saline with Tween-80); 106 % of control under setting [1].

On to `Cc1cc(NCCCCNCCCNc2cc(C)nc3cc(N)ccc23)c2ccc(N)cc2n1`, for which the T/C was 150 % of control (dose: 12.5 mg/kg/injection, schedule: Q01DX009 (ip), vehicle: other) and 175 % of control (dose: 25.0 mg/kg/injection, schedule: Q01DX009 (ip), vehicle: other).

Consider `O=c1c(N=Nc2nc3ccc([N+](=O)[O-])cc3s2)c(O)n(-c2ccccc2)c(=S)n1-c1ccccc1`, for which the T/C is 96 % of control (dose: 60.0 mg/kg/injection, schedule: Q01DX005 (ip), vehicle: saline); 96 % of control (dose: 120.0 mg/kg/injection, schedule: Q01DX005 (ip), vehicle: saline); 92 % of control (dose: 240.0 mg/kg/injection, schedule: Q01DX005 (ip), vehicle: saline).

For `NCC1CC2c3ccccc3C1c1ccccc12` (stereo not drawn), the T/C is, setting by setting: (dose: 12.5 mg/kg/injection, schedule: Q01DX005 (ip), vehicle: Klucel (hydroxypropylcellulose) (HPC)) 103 % of control; under setting [2], 97 % of control; under setting [3], 99 % of control and 95 % of control; under setting [4], 106 % of control.

Turning to `Cc1ccc(S(=O)(=O)/C(=C/c2c(-c3ccccc3)c(-c3ccccc3)c3n2CCC3)NC=O)cc1`, the T/C was 96 % of control (dose: 100.0 mg/kg/injection, schedule: Q01DX001 (ip), vehicle: saline with Tween-80); 88 % of control (dose: 200.0 mg/kg/injection, schedule: Q01DX001 (ip), vehicle: saline with Tween-80); 86 % of control (dose: 400.0 mg/kg/injection, schedule: Q01DX001 (ip), vehicle: saline with Tween-80).

In the case of `CC1=C[S+](c2ccccc2)c2cccc3cc4ccccc4c1c23` (stereo not drawn), the T/C is 100 % of control (dose: 0.62 mg/kg/injection, schedule: Q04DX003 (ip), vehicle: saline); 100 % of control (dose: 1.25 mg/kg/injection, schedule: Q04DX003 (ip), vehicle: saline); 104 % of control (dose: 2.5 mg/kg/injection, schedule: Q04DX003 (ip), vehicle: saline).

Consider `CC(=O)Nc1n[nH]c(C)n1`, for which the T/C (dose: 25.0 mg/kg/injection, schedule: Q01DX005 (ip), vehicle: saline) was 97 % of control; the T/C under setting [5] is 106 % of control; the T/C under setting [6] was 97 % of control.

For `COC(=O)c1nnc(C(=O)OC)c2c1[nH]c1ccccc12`, the T/C is 96 % of control (dose: 60.0 mg/kg/injection, schedule: Q01DX005 (ip), vehicle: saline with Tween-80); 103 % of control (dose: 120.0 mg/kg/injection, schedule: Q01DX005 (ip), vehicle: saline with Tween-80); 94 % of control (dose: 240.0 mg/kg/injection, schedule: Q01DX005 (ip), vehicle: saline with Tween-80).
